Data published in patent publication US20160039842A1, “OXAZOLO[5,4-C]QUINOLIN-2-ONE COMPOUNDS AS BROMODOMAIN INHIBITORS” (EPIGENETIX, INC., priority 2013, published 2016).
pIC50: −log10 of the molar value.

What follows are compounds tested against T1, BRD4(BD1) (Homo sapiens, UniProt O60885) (assay: In Vitro Bromodomain Inhibition Assay (AlphaLISA, H4-tetraacetyl peptide)). Details: His-tagged BRD4(BD1) 200 nM, biotinylated H4-tetraacetyl peptide 200 nM, room temperature.
T1 construct: purchased BPS Bioscience
Format: binding
Experimental: To measure activity of bromodomain inhibitors, a His-epitope tagged BRD4 BD149-170 was purchased from BPS Bioscience. BRD4 binding and inhibition was assessed by monitoring the engagement of biotinylated H4-tetraacetyl peptide (H4K5/8/12/16; AnaSpec #64989-025) with the target using the AlphaLISA technology (Perkin-Elmer). Specifically, in a 384 well OptiPlate, BRD4(BD1) (200 nM final) was pre-incubated with either DMSO (final 1.0% DMSO) or a compound dilution series in DMSO. All reagents were diluted in assay buffer containing 50 mM HEPES (pH 7.4), 100 mM NaCl, 0.1% (w/v) BSA, and 0.05% (w/v) CHAPS. After a 30 minute incubation at room temperature, H4 peptide was added (200 nM final) and the reaction was incubated an additional 30 minutes at room temperature. Alpha. streptavidin donor beads and AlphaLISA nickel chelate acceptor beads were then added to a final concentration of 10 ug/mL each. After one hour, equilibration plates were read on an Envision instrument and IC50s calculated using a four parameter non-linear curve fit.

Compound | pIC50
CCOC(=O)c1nc2cc(-c3c(C)noc3C)c(OC)cc2c2c1oc(=O)n2[C@H](C)c1ccccc1 [Example 34, Ethyl 7-(3,5-Dimethylisoxazol-4-yl)-8-methoxy-2-oxo-1-[(1R)-1-phenylethyl]oxazolo[5,4-c]quinoline-4-carboxylate] | > 6.00
COc1cc2c(cc1-c1c(C)noc1C)ncc1oc(=O)n(Cc3c(C)cccc3F)c12 [Example 37, 7-(3,5-Dimethylisoxazol-4-yl)-1-[(2-fluoro-6-methyl-phenyl)methyl]-8-methoxy-oxazolo[5,4-c]quinolin-2-one] | > 6.00
COc1cc2c(cc1-c1c(C)noc1C)nc(CO)c1oc(=O)n([C@H](C)c3ccccc3)c12 [Example 35, 7-(3,5-Dimethylisoxazol-4-yl)-4-(hydroxymethyl)-8-methoxy-1-[(1R)-1-phenylethyl]oxazolo[5,4-c]quinolin-2-one] | > 6.00
COc1cc2c(cc1-c1c(C)noc1C)ncc1oc(=O)n(Cc3ccccc3Cl)c12 [Example 18, 1-[(2-Chlorophenyl)methyl]-7-(3,5-dimethylisoxazol-4-yl)-8-methoxy-oxazolo[5,4-c]quinolin-2-one] | > 6.00
CC[C@H](c1ccccc1)n1c(=O)oc2cnc3cc(-c4c(C)noc4C)c(OC)cc3c21 [Example 39, 7-(3,5-Dimethylisoxazol-4-yl)-8-methoxy-1-[(1R)-1-phenylpropyl]oxazolo[5,4-c]quinolin-2-one] | > 6.00
COc1cc2c(cc1-c1c(C)noc1C)nc(CO)c1oc(=O)n(Cc3ccccc3)c12 [Example 33, 1-Benzyl-7-(3,5-dimethylisoxazol-4-yl)-4-(hydroxymethyl)-8-methoxy-oxazolo[5,4-c]quinolin-2-one] | > 6.00
COc1cc2c(cc1-c1c(C)noc1C)nc(CN1CCOCC1)c1oc(=O)n(Cc3ccccc3)c12 [Example 41, 1-Benzyl-7-(3,5-dimethylisoxazol-4-yl)-8-methoxy-4-(morpholinomethyl)oxazolo[5,4-c]quinolin-2-one] | > 6.00
COc1cc2c(cc1-c1c(C)noc1C)ncc1oc(=O)n([C@H](C)c3cccc(Cl)c3)c12 [Example 45, 1-[(1R)-1-(3-Chlorophenyl)ethyl]-7-(3,5-dimethylisoxazol-4-yl)-8-methoxy-oxazolo[5,4-c]quinolin-2-one] | > 6.00
COc1cc2c(cc1-c1c(C)noc1C)ncc1oc(=O)n([C@H](C)c3ccc(C#N)cc3)c12 [Example 43, 4-[(1R)-1-[7-(3,5-Dimethylisoxazol-4-yl)-8-methoxy-2-oxo-oxazolo[5,4-c]quinolin-1-yl]ethyl]benzonitrile] | > 6.00
COc1cc2c(cc1-c1c(C)noc1C)ncc1oc(=O)n(Cc3ccc(C)cc3)c12 [Example 46, 7-(3,5-Dimethylisoxazol-4-yl)-8-methoxy-1-(p-tolylmethyl)oxazolo[5,4-c]quinolin-2-one] | > 6.00
COCc1nc2cc(-c3c(C)noc3C)c(OC)cc2c2c1oc(=O)n2[C@H](C)c1ccccc1 [Example 38, 7-(3,5-Dimethylisoxazol-4-yl)-8-methoxy-4-(methoxymethyl)-1-[(1R)-1-phenylethyl]oxazolo[5,4-c]quinolin-2-one] | > 6.00
COc1cc2c(cc1-c1c(C)noc1C)ncc1oc(=O)n(Cc3ccccc3)c12 [Example 2, 1-Benzyl-7-(3,5-dimethylisoxazol-4-yl)-8-methoxy-oxazolo[5,4-c]quinolin-2-one] | > 6.00
COc1cc2c(cc1-c1c(C)noc1C)ncc1oc(=O)n(Cc3ccccc3C#N)c12 [Example 50, 2-[[7-(3,5-Dimethylisoxazol-4-yl)-8-methoxy-2-oxo-oxazolo[5,4-c]quinolin-1-yl]methyl]benzonitrile] | > 6.00
COc1cc2c(cc1-c1c(C)noc1C)ncc1oc(=O)n(Cc3ccc(OC(F)(F)F)cc3)c12 [Example 54, 7-(3,5-Dimethylisoxazol-4-yl)-8-methoxy-1-[[4-(trifluoromethoxy)phenyl]methyl]oxazolo[5,4-c]quinolin-2-one] | > 6.00
COc1cc2c(cc1-c1c(C)noc1C)ncc1oc(=O)n([C@H](C)c3ccccn3)c12 [Example 3, 7-(3,5-Dimethylisoxazol-4-yl)-8-methoxy-1-[(1R)-1-(2-pyridyl)ethyl]oxazolo[5,4-c]quinolin-2-one] | > 6.00
CCOC(=O)c1nc2cc(-c3c(C)noc3C)c(OC)cc2c2c1oc(=O)n2Cc1ccccc1 [Example 1, Ethyl 1-benzyl-7-(3,5-dimethylisoxazol-4-yl)-8-methoxy-2-oxo-oxazolo[5,4-c]quinoline-4-carboxylate] | > 6.00
COc1cc2c(cc1-c1c(C)noc1C)ncc1oc(=O)n([C@H](C)c3ccc(Cl)cc3)c12 [Example 40, 1-[(1R)-1-(4-Chlorophenyl)ethyl]-7-(3,5-dimethylisoxazol-4-yl)-8-methoxy-oxazolo[5,4-c]quinolin-2-one] | > 6.00
COc1cc2c(cc1-c1c(C)noc1C)ncc1oc(=O)n([C@H](C)c3cccc(C#N)c3)c12 [Example 44, 3-[(1R)-1-[7-(3,5-Dimethylisoxazol-4-yl)-8-methoxy-2-oxo-oxazolo[5,4-c]quinolin-1-yl]ethyl]benzonitrile] | > 6.00
CCNCc1nc2cc(-c3c(C)noc3C)c(OC)cc2c2c1oc(=O)n2Cc1ccccc1 [Example 52, 1-Benzyl-7-(3,5-dimethylisoxazol-4-yl)-4-(ethylaminomethyl)-8-methoxy-oxazolo[5,4-c]quinolin-2-one] | > 6.00
COc1cc2c(cc1-c1c(C)noc1C)nc(C(=O)O)c1oc(=O)n([C@H](C)c3ccccc3)c12 [Example 51, 7-(3,5-Dimethylisoxazol-4-yl)-8-methoxy-2-oxo-1-[(1R)-1-phenylethyl]oxazolo[5,4-c]quinoline-4-carboxylic acid] | > 6.00
COc1cc2c(cc1-c1c(C)noc1C)ncc1oc(=O)n([C@H](C)c3ccccc3)c12 [Example 12A, 7-(3,5-Dimethylisoxazol-4-yl)-8-methoxy-1-[(1R)-1-phenylethyl]oxazolo[5,4-c]quinolin-2-one] | > 6.00
COc1cc2c(cc1-c1c(C)noc1C)nc(C)c1oc(=O)n([C@H](C)c3ccccc3)c12 [Example 36, 7-(3,5-Dimethylisoxazol-4-yl)-8-methoxy-4-methyl-1-[(1R)-1-phenylethyl]oxazolo[5,4-c]quinolin-2-one] | > 6.00
COc1cc2c(cc1-c1c(C)noc1C)nc(CN(C)C)c1oc(=O)n([C@H](C)c3ccccc3)c12 [Example 42, 4-(Dimethylaminomethyl)-7-(3,5-dimethylisoxazol-4-yl)-8-methoxy-1-[(1R)-1-phenylethyl]oxazolo[5,4-c]quinolin-2-one] | > 6.00
COc1cc2c(cc1-c1c(C)noc1C)ncc1oc(=O)n(Cc3ccccc3S(C)(=O)=O)c12 [Example 49, 7-(3,5-Dimethylisoxazol-4-yl)-8-methoxy-1-[(2-methylsulfonylphenyl)methyl]oxazolo[5,4-c]quinolin-2-one] | > 6.00
COc1cc2c(cc1-c1c(C)noc1C)nc(CN(C)C)c1oc(=O)n(Cc3ccccc3)c12 [Example 47, 1-Benzyl-4-(dimethylaminomethyl)-7-(3,5-dimethylisoxazol-4-yl)-8-methoxy-oxazolo[5,4-c]quinolin-2-one] | > 6.00
CCN(Cc1nc2cc(-c3c(C)noc3C)c(OC)cc2c2c1oc(=O)n2Cc1ccccc1)C(C)=O [Example 48, N-[[1-Benzyl-7-(3,5-dimethylisoxazol-4-yl)-8-methoxy-2-oxo-oxazolo[5,4-c]quinolin-4-yl]methyl]-N-ethyl-acetamide] | > 6.00
